According to patent US9593305B2, “Differentiation of pluripotent stem cells” (Janssen Biotech, Inc., priority 2008, dated 2017):

Legend:
[1] = test system: H1 human embryonic stem cells; assay: Step-wise differentiation, high content analysis of SOX17, cell number, insulin, glucagon (Example 16); format: cell-based; settings: GDF-8 with compound in step 1, relative to activin A and Wnt3a
Protocol: (§1) The assay was initiated by aspirating the culture medium from each well and adding back an aliquot (0.5 ml) of test medium. Test conditions for the first step of differentiation were conducted over a three-day period, feeding daily by aspirating and replacing the medium from each well with fresh test medium. On the first day of assay, 100 ng/ml activin A (PeproTech; Cat #120-14) or 100 ng/ml GDF-8 (R&D Systems, Cat #788-G8) was added to respective assay wells where each growth factor was diluted into RPMI-1640 medium (Invitrogen; Cat #: 22400) with 2% Albumin Bovine Fraction V, Fatty Acid Free (FAF BSA) (Proliant Inc. Cat #: SKU 68700), and 20 ng/ml Wnt3a (R&D Systems; Cat #1324-WN/CF). On the second day of assay, 100 ng/ml activin A or 100 ng/ml GDF-8 was diluted into RPMI-1640 medium supplemented with 2% FAF BSA without Wnt3a. In some test samples using GDF-8, Wnt3a was replaced with a small molecule compound, added only on the first day of definitive endoderm differentiation. These small molecules included Compound 19 (2.5 μM in assay), Compound 202 (2.5 μM in assay), Compound 40 (2.5 μM in assay), or a commercially available GSK3 inhibitor BIO (0.5 μM in assay) (EMD Chemicals, Inc.; Cat #361550). At the conclusion of the first step of differentiation, cells from some wells were harvested for flow cytometry analysis to evaluate levels of CXCR4, a marker of definitive endoderm formation. Additional wells were harvested for RT-PCR analysis to measure other markers of differentiation.
Step 5 of the differentiation protocol was carried out over seven days in DMEM-high glucose with 0.1% Albumax, 0.5× Insulin-Transferrin-Selenium, and 1 μM Alk 5 inhibitor. […]
Imaging was performed using an IN Cell Analyzer 1000 (GE Healthcare) utilizing the 51008bs dichroic for cells stained with Hoechst 33342 and Alexa Fluor 488. […] Segmentation for the nuclei was determined based on gray-scale levels (baseline range 100-300) and nuclear size. Averages and standard deviations were calculated for each replicate data set. […]

[2] = test system: H1 human embryonic stem cells; assay: Step-wise differentiation, FACS for CXCR4 after step 1 (Example 16); format: cell-based; settings: 100 ng/ml GDF-8 with compound on first day, compared to activin A and Wnt3a
Protocol: as §1
Cells for FACS analysis were blocked in a 1:5 solution of 0.5% human gamma-globulin (Sigma; Cat#G-4386) in PBS (Invitrogen; Cat #14040-133): BD FACS staining buffer—BSA (BD; Cat #554657) for 15 minutes at 4° C. Cells were then stained with antibodies for CD9 PE (BD; Cat #555372), CD99 PE (Caltag; #MHCD9904) and CXCR4 APC(R&D Systems; Cat#FAB 173A) for 30 minutes at 4° C. After a series of washes in BD FACS staining buffer, the cells were stained for viability with 7-AAD (BD; Cat #559925) and run on a BD FACSArray. […]

For `O=C1Nc2cc(Br)ccc2/C1=C1/Nc2ccccc2/C1=N\O` [GSK3 inhibitor BIO, reference compound], the “relative cell numbers recovered through differentiation step 5” value [1] was “decrease in cell number” and the “percentage of CXCR4 positive cells after step 1” value [2] was “equivalent or slightly higher percentage of CXCR4 positive cells”.
